Measurements reported in patent US20220306640A1, “HYDANTOIN DERIVATIVE” (ONO PHARMACEUTICAL CO., LTD., priority 2019, published 2022).

Assays:
Flt-3 = biological target: T1, Flt-3 (Homo sapiens, UniProt P36888); assay: Evaluation of kinase selectivity: % inhibition rate of Flt-3 at 1 μmol/L; assay type: biochemical; settings: compound at 1 μmol/L
T1 sequence (P36888 27-993): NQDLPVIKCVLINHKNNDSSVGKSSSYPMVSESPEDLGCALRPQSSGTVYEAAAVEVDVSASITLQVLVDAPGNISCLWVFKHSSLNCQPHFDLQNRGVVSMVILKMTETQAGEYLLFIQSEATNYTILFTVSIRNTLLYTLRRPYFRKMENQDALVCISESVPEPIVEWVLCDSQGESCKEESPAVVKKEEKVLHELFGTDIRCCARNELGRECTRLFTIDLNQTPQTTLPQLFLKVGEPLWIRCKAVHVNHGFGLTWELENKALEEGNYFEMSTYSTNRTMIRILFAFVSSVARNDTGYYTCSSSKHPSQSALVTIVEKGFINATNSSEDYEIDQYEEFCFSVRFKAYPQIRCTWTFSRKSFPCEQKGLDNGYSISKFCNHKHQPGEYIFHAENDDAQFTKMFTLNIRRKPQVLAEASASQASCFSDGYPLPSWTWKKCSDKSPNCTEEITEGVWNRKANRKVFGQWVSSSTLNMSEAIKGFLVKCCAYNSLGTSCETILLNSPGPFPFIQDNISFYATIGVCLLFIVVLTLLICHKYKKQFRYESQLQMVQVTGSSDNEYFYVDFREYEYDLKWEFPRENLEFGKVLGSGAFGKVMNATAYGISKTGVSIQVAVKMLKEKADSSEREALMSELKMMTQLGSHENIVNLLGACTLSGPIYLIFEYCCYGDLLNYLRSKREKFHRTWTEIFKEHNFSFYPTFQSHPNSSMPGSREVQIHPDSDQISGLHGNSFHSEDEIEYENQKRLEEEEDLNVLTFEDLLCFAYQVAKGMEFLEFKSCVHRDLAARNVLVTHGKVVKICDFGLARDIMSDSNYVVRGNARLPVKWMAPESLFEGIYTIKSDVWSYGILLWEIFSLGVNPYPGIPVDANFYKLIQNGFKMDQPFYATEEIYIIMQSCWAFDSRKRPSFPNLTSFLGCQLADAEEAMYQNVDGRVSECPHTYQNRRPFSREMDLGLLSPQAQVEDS
Protocol: (§1) Biological Example 3: Evaluation of Kinase Selectivity
(§2) % inhibition rate with respect to various kinases (for example KDR etc.) of 1 μmol/L the test compound is measured.
(§3) A general assay condition (substrates, cofactor, ATP concentrations and reaction time etc.) suitable for respective kinase enzyme inhibition activity test is used.
(§4) 1 Prepare the test compounds into 1 mmol/L DMSO solution. 2 Transfer 20 nL of stock to 384 assay plate. Use DMSO as High and Low controls.
(§5) 1 Prepare the 1.3× Enzyme solution containing enzyme, substrate and cofactors. 2 Add 15 μL of 1.3× Enzyme solutions to each well and incubate the plate at room temperature for 30 min. 3 Initiate the reaction by adding 5 μL of 4×ATP solution. The final volume of each well should be 20 μL. 4 Incubate the plate at room temperature for reaction and add 75 μL of stopping buffer (containing 0.5 mol/L EDTA) to terminate the reaction.
(§6) Analyze the sample of each well using EZ reader (PerkinElmer).
(§7) Calculate the % Inhibition using read conversion ratio (CR) following the equation as below.
(§8) Use well treated with DMSO as High Control Use well without enzyme as Low Control

KDR = KDR (Homo sapiens, UniProt P35968); assay: Evaluation of kinase selectivity: % inhibition rate of KDR at 1 μmol/L; assay type: biochemical; settings: compound at 1 μmol/L
Protocol: as §1, §2, §3, §4, §5, §6, §7, §8

[1] = biological target: T2, DDR1 phosphorylation in T-47D (ATCC, HTB-133) cells (Homo sapiens, UniProt Q08345); assay: Measurement of DDR1 phosphorylation suppression rate by using T-47D cells (p-DDR1 ELISA); assay type: cell-based; settings: collagen Type I 10 μg/ml, p-DDR1 (panTyr) ELISA
T2 construct: host or cells: T-47D
Protocol: Biological Example 2: Measurement of DDR1 Phosphorylation Suppression Rate by Using T-47D (ATCC, HTB-133) cells
T-47D cells should be in culture for at least 7 days before using in the assay.
Cell culture medium: RPMI 1640 (HyClone) containing 10% Heat-FBS (HyClone) was prepared.
Assay medium: RPMI 1640 containing 0.1% BSA (solarbio) was prepared.
Collagen Type I (rat tail) solution: Assay medium containing 200 μg/mL Collagen I, rat tail (Gibco) was prepared.
Cell lysis buffer: a solution containing IX cell lysis buffer (CST) and 1× protease and phosphatase inhibitor cocktail (Thermofisher) was prepared by using ddH2O.
• 1. Collect cells into tubes and centrifuge at 1200 rpm for 5 min, at room temperature. Re-suspend the cells in cell culture medium pre-warmed to room temperature. • 2. Count cells and suspend at a density of 2×10^5/ml of cell culture medium. Plate the cells at 100 μL per well (Corning 3599 96-well plate, 2×10^4 cells per well final), mixing the cells well between each draw of the pipettor. • 3. Put lid on cell plate and place into the incubator at 37° C., 5% CO2 • 4. Culture cell overnight
• 1. Remove the plate from the incubator • 2. Cell medium is replaced with the 90 μL Assay medium.
• 1. Compound plates are pre-titrated using DMSO (10-fold dilution for 6 points) • 2. Dilute test compound using assay medium; Transfer 1 μL compound to other 96 well plate and then add 49 μL assay medium to each well (50 fold dilution). • 3. Add 5 μL the diluted test compound solution to the appropriate wells by pipettor. Compound final concentration is start from […] and DMSO final concentration is 0.1 • 4. Tap the plates gently to mix in compound. Reseal the plate with a lid and place in the incubator again, for 24 h.
• 1. Diluted collagen Type I in assay medium to the 200 μg/ml concentration • 2. Using the pipettor adds 5 μL of 200 μg/mL collagen Type I solution to the cell plate (compound well and High control well, collagen final conc. is 10 μg/ml). Add assay medium buffer to the control wells (low control well) • 3. Reseal the plate with a lid and place in the incubator. Incubate 24 h for collagen type I
• 1. After incubation, add 100 µL per well Cell lysis buffer. • 2. Incubate 30 min on ice, then freezing to −80° C. to get the fully cell lysates. • 3. Transfer cell lysates to new plate • 4. Centrifuge for 30 min (×4000 rpm) at 4° C. Then transfer the supernatant to a new plate.
p-DDR1 (panTyr) ELISA kit (CST) was used in the study. The measurement was carried out according to the attached instruction.
(§9) The inhibition rate (%) in the test compound group was calculated based on the following mathematical formula.
% inhibition=100−100*(assay value of test compound−A)/(B−A) [Math. 2]
A: average value of low control group B: average value of high control group Values of 50% inhibition rate (IC50 values) of the test compound were calculated from the inhibition curve based on the inhibition rate of the test compounds in each concentration.

DDR1 = biological target: T3, DDR1 (Homo sapiens, UniProt Q08345); assay: Measurement of DDR1 inhibitory activity (LanthaScreen system, in vitro test); assay type: binding; settings: GST-DDR1, Kinase tracer 178
T3 construct: purchased Invitrogen
Protocol: Biological Experiment Example 1: Measurement of an DDR1 Inhibitory Activity (In Vitro Test)
An DDR1 enzyme inhibitory activity was measured by using LanthaScreen (registered trademark) system (Invitrogen) based on the attached instruction. The reagents used are shown below.
Assay buffer: 5× Kinase buffer A (Invitrogen) was diluted 5-fold with ddH2O.
1× Kinase Buffer A: 50 mmol/L HEPES pH 7.5, 10 mmol/L MgCl2, 1 mmol/L EGTA, 0.01% Brij-35.
2×DDR1 Solution: a solution containing […] GST-DDR1 (Invitrogen) was prepared by using Assay buffer.
2× Tracer/antibody solution: a solution containing 20 nmol/L Kinase tracer 178 (Invitorgen) and […] Eu-Anti-GST Antibody (Invitorogen) was prepared by using Assay buffer. Test compound solution: a solution containing a test compound of 2-fold concentration with respect to the final concentration was prepared by 50-fold diluting a DMSO solution of test compound of each concentration with the Assay buffer.
• 1 Add 5 μL 2×DDR1 Solution to proxiplate (PerkinElmer) • 2 Add 5 μL test compound solution to proxiplate • 3 Incubate for 15 min at RT • 4 Add 5 μL 2× Tracer/Antibody solution to all well Incubate 1 h at RT • 6 Read LANCE Eu on Envision (PerkinElmer) (Ex: 320 nm/Em 665 nm & 615 nm)
In the low control group, 5 μL Assay buffer was added instead of 5 μL 2×DDR1 Solution and the final 1% DMSO solution was added instead of test compound solution.
In the high control group, the final 1% DMSO solution was added instead of test compound solution.
as §9
% inhibition=100−100*(assay value of test compound−A)/(B−A) [Math. 1]
A: average value of low control group B: average value of high control group
Values of 50% inhibition rate (IC50 values) of the test compound were calculated from the inhibition curve based on the inhibition rate of the test compounds in each concentration.

ROCK = ROCK (Homo sapiens, UniProt O75116); assay: Evaluation of kinase selectivity: % inhibition rate of ROCK at 1 μmol/L; assay type: biochemical; settings: compound at 1 μmol/L; read-out: % inhibition rate of ROCK2
Protocol: as §1, §2, §3, §4, §5, §6, §7, §8

ROCK, sequence (O75116 whole entry): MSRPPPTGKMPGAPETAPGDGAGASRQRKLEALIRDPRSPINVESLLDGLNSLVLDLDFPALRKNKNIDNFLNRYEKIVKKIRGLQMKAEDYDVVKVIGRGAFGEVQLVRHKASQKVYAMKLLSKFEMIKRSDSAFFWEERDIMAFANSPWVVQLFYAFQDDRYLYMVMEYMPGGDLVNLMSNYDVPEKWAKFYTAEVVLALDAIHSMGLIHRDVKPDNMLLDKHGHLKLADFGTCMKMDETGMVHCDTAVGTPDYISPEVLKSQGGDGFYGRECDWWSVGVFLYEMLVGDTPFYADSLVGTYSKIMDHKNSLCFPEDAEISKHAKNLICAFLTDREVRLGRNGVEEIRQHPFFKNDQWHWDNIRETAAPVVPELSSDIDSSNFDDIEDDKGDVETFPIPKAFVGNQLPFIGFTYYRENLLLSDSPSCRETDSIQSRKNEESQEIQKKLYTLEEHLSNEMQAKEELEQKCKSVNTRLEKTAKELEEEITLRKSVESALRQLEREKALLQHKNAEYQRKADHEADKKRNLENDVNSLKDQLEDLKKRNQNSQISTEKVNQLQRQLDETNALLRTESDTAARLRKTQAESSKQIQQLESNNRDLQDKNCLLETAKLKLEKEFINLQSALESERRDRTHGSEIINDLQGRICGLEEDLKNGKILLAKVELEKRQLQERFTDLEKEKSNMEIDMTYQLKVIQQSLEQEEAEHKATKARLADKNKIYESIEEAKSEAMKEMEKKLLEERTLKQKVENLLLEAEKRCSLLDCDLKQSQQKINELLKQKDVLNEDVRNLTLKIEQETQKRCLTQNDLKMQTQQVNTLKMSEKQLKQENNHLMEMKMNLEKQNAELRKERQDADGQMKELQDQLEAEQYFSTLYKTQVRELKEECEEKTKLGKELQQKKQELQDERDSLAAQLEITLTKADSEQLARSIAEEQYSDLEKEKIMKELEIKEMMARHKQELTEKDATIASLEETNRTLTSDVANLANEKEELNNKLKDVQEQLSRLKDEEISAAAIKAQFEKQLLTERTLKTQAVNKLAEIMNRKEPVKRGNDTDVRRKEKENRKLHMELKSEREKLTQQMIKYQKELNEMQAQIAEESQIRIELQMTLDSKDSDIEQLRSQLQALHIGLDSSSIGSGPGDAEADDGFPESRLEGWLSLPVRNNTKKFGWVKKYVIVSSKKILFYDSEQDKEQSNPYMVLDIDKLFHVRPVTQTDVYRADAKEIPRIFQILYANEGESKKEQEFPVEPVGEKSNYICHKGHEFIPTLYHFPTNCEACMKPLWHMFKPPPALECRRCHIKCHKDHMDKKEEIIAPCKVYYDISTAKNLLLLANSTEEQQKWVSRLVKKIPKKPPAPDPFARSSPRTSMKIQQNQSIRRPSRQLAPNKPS
T3 sequence (Q08345 19-913): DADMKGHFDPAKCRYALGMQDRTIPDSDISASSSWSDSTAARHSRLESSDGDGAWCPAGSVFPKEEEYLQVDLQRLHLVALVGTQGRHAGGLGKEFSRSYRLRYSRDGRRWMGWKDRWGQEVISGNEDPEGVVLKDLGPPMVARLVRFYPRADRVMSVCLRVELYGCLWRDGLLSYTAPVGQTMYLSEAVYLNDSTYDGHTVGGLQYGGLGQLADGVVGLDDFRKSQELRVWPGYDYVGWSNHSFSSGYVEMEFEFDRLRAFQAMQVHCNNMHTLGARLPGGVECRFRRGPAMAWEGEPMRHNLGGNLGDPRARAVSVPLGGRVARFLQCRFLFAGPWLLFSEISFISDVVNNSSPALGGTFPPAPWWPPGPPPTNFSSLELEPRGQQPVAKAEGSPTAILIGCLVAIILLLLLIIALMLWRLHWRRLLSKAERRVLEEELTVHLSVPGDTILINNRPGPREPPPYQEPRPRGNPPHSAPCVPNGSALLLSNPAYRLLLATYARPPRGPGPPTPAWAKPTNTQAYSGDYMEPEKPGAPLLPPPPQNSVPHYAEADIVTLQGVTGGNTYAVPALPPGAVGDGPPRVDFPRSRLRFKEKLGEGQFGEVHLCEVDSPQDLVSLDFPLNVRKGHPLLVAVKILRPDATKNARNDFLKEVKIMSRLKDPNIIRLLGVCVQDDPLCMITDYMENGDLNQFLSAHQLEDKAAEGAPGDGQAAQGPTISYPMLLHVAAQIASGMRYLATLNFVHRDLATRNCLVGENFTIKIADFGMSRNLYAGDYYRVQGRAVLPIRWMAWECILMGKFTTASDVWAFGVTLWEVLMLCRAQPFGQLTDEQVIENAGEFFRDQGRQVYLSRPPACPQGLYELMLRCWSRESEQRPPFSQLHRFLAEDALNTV
T2 sequence (Q08345 19-913): as above
KDR, sequence (P35968 20-1356, species assumed): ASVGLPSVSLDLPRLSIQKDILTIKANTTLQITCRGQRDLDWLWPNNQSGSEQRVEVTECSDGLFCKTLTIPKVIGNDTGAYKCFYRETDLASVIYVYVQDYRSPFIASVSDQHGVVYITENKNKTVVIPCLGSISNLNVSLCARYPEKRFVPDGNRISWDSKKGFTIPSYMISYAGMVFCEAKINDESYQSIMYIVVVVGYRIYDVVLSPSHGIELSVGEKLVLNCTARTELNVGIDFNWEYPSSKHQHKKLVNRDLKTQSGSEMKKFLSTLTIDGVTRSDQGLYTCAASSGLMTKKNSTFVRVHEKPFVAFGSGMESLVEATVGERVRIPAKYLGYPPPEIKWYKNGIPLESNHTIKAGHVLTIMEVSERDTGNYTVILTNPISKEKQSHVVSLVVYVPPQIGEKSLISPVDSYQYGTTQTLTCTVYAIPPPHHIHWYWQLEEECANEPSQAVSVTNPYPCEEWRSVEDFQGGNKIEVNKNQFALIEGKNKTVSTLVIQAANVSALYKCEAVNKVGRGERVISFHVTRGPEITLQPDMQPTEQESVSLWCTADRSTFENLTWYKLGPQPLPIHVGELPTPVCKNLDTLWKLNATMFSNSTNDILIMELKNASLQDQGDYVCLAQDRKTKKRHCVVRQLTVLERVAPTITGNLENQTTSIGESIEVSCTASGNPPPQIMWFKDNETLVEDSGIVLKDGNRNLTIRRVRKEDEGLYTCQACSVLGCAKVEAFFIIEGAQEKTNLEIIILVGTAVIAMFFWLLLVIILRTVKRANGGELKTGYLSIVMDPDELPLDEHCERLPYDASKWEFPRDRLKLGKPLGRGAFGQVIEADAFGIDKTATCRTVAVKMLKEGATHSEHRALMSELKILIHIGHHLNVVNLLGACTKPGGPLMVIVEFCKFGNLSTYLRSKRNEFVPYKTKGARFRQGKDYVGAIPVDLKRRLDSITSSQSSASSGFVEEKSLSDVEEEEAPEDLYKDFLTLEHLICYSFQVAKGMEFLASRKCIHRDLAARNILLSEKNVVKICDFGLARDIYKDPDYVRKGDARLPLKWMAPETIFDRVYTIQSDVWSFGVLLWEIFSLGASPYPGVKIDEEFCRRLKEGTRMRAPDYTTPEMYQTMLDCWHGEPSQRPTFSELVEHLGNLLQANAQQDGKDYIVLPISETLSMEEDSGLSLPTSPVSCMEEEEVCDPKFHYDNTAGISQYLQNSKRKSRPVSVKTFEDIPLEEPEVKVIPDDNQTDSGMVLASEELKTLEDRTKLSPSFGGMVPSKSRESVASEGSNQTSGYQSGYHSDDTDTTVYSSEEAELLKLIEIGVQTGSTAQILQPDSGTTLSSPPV

Row | inhibition at 1 µM (Flt-3) [%] | inhibition at 1 µM (KDR) [%] | IC50 [1] [nM] | IC50 (DDR1) [nM] | inhibition at 1 µM (ROCK) [%] | Compound
1 | 16 | 2 | 1 | 1 | -2 | O=C1CN(c2cncc(C(F)(F)F)c2)C(=O)N1c1ccc(Oc2cnc3[nH]ncc3c2)cc1 [Example 1(11), 3-[4-(1H-pyrazolo[3,4-b]pyridin-5-yloxy)phenyl]-1-[5-(trifluoromethyl)-3-pyridinyl]-2,4-imidazolidinedione]
2 | 4 | 1 | 3 | 5 | -5 | Cc1cc(Oc2ccnc(N)n2)ccc1N1C(=O)CN(c2cncc(C(F)(F)F)c2)C1=O [Example 2, 3-{4-[(2-amino-4-pyrimidinyl)oxy]-2-methylphenyl}-1-[5-(trifluoromethyl)-3-pyridinyl]-2,4-imidazolidinedione]
3 | 5 | -1 | 2 | 3 | 5 | O=C1CN(c2cncc(C(F)(F)F)c2)C(=O)N1C12CCC(Oc3ncnc4[nH]ccc34)(CC1)C2 [Example 3(65), 3-[4-(7H-pyrrolo[2,3-d]pyrimidin-4-yloxy)bicyclo[2.2.1]hept-1-yl]-1-[5-(trifluoromethyl)-3-pyridinyl]-2,4-imidazolidinedione]
4 | -2 | -3 | 8 | – | -8 | O=C1CN(c2cncc(C(F)(F)F)c2)C(=O)N1C12CCC(Oc3ncnc4[nH]cc(F)c34)(CC1)C2 [Example 42(1), 3-{4-[(5-fluoro-7H-pyrrolo[2,3-d]pyrimidin-4-yl)oxy]bicyclo[2.2.1]hept-1-yl}-1-[5-(trifluoromethyl)-3-pyridinyl]-2,4-imidazolidinedione]
